Reference: ChEMBL document CHEMBL1150896, “Arenarins A-C: new cytotoxic fungal metabolites from the sclerotia of aspergillus arenarius” (1998)
≈ marks a conversion by molar mass, not a printed value.

How the values were obtained:
Format in all cases: functional
[1] = system: Carpophilus; assay: Reduction of feeding rate in adult Carpophilus hemipterus at 100 ppm dietary level relative to control; set-up: scale not given: the % may be the effect or the level left
[2] = system: Carpophilus; assay: Reduction of feeding rate in Carpophilus hemipterus larvae at 100 ppm dietary level relative to control; set-up: scale not given: the % may be the effect or the level left
[3] = Cytotoxicity against human NCI60 cells

## COc1c(-c2ccc(O)cc2)c(O)cc2c1oc1cc(O)c(OCC=C(C)C)cc12 [ARENARIN A]
[1]
  Activity: 13%
[2]
  Activity: 13%
[3]
  GI50: 4.8 µg/mL (≈ 11.8 µM)

## C=C(C)C1Cc2c(ccc(O)c2OC/C=C(\C)CO)C2=C1C(=O)C(c1ccc(O)cc1)=C(OC)C2=O (stereo unspecified) [ARENARIN B]
[1]
  Activity: 20%
[3]
  GI50: 3.8 µg/mL (≈ 7.78 µM)

## C=C(C)C1Cc2c(ccc(OC)c2OC/C=C(\C)CO)C2=C1C(=O)C(c1ccc(O)cc1)=C(OC)C2=O (stereo unspecified) [ARENARIN C]
[1]
  Activity: 13%
